In patent US20180185423A1, “SEAWEED EXTRACTS WITH ANTI-CANCER ACTIVITY” (OCEANS LTD., priority 2015, published 2018):
Values joined by “and” are separate entries in the source; they are usually repeats but may differ in a detail not shown here. Equal values may be shown once.

Legend:
Assay in all cases: CIMA assay (colorimetric indicator of metabolic activity), 72 h exposure
A549 (lung carcinoma) = assay type: cell-based, human; settings: A549, SDS 5% control; 0 = 100.0
Method: (§1) Stock solutions of the extracts were prepared in dimethylsulfoxide (DMSO) at 10 mg/mL and stored in 200 μl aliquots at −20° C. until analysis. This preparation ensured that the DMSO delivered to cells in culture never exceeded 1%.
(§2) Prepared extracts were assessed following chronic exposure conditions in which cells were seeded at 2×10^3 cells/well (96 wells plate) and incubated with test compounds for 72 h. Each compound was evaluated over a range of concentrations (0, 10, 25, 50 or 100 μg/ml). Cell proliferation was initially assessed using a standard colorimetric indicator of metabolic activity (CIMA) assay. In this assay, tetrazole reduction was evaluated as a measure of metabolic function that evaluates mitochondrial activity to determine the extent of cell proliferation within a culture. This assay is based on the reduction of yellow tetrazolium salt to purple formazan by mitochondrial reductases enzyme in viable cells, resulting in a color changed that confers a change in absorbance. […] From the results shown in Table 2 and FIGS. 4 and 5, the extracts were selected for additional fractionation and evaluated in the same manner.

PC3 = assay type: cell-based; settings: PC3, SDS 5% control; 0 = 100.0
Method: as §1, §2

[1] = test system: CCD1079SK (fibroblast, noncancerous but proliferating); assay type: cell-based, human; settings: SDS 5% control, 0 = 100.0, in % (unit assumed)
Method: as §1
(§3) Prepared extracts were assessed following chronic exposure conditions in which cells were seeded at 2×10^3 cells/well (96 wells plate) and incubated with test compounds for 72 h. Each compound was evaluated over a range of concentrations (0, 10, 25, 50 or 100 μg/ml). Cell proliferation was initially assessed using a standard colorimetric indicator of metabolic activity (CIMA) assay. In this assay, tetrazole reduction was evaluated as a measure of metabolic function that evaluates mitochondrial activity to determine the extent of cell proliferation within a culture. This assay is based on the reduction of yellow tetrazolium salt to purple formazan by mitochondrial reductases enzyme in viable cells, resulting in a color changed that confers a change in absorbance. Six human cell lines were selected for primary evaluation: U373 (glioblastoma-astrocytoma), A549 (lung carcinoma), THP-1 (acute monocytic leukemia), MCF7 (mammary gland adenocarcinoma), SKOV3 (ovarian adenocarcinoma), and CCD1079SK (fibroblast, noncancerous but proliferating). From the results shown in Table 2 and FIGS. 4 and 5, the extracts were selected for additional fractionation and evaluated in the same manner.
(§4) Lead crude extracts were fractionated into five fractions by C-18 SPE column separation using 15 ml each of 5% methanol (fraction 1), 25% methanol (fraction 2), 50% methanol (fraction 3), 100% methanol (fraction 4) and […] (fraction 5). Extracts were fractionated and the resulting fractions were evaluated using CIMA assay. Bio-assay guided fractionation provided detailed information regarding the compound(s) responsible for specific bioactivity.

[2] = test system: MCF7 (mammary gland adenocarcinoma); assay type: cell-based, human; settings: MCF7, SDS 5% control; 0 = 100.0; in % (unit assumed)
Method: as §1, §3, §4

[3] = test system: SKOV3 (ovarian adenocarcinoma); assay type: cell-based, human; settings: SKOV3, SDS 5% control; 0 = 100.0; in % (unit assumed)
Method: as §1, §3, §4

[4] = test system: THP-1 (acute monocytic leukemia); assay type: cell-based, human; settings: THP-1, SDS 5% control; 0 = 100.0; in % (unit assumed)
Method: as §1, §3, §4

[5] = test system: U373 (glioblastoma-astrocytoma); assay type: cell-based, human; settings: U373, SDS 5% control; 0 = 100.0; in % (unit assumed)
Method: as §1, §3, §4

For `CCCCCCCCCCCCOS(=O)(=O)[O-].[Na+]` [SDS], the AVG (viability, CIMA assay) (A549 (lung carcinoma)) was 68.7%, the AVG (viability, CIMA assay) (PC3) was 77.3% and the “AVG (viability, CIMA assay)” value [1] was 9.4 and 11.3. For the same compound, the “AVG (viability, CIMA assay)” value [2] was 44.1 and 49.9, the “AVG (viability, CIMA assay)” value [3] was 78.9 and 56.5 and the “AVG (viability, CIMA assay)” value [4] was 20.3 and 36.2. For the same compound, the “AVG (viability, CIMA assay)” value [5] was 48.4 and 58.1.
